In publication PMC8632718, “Novel Assay Platform to Evaluate Intracellular Killing of Mycobacterium tuberculosis: In Vitro and In Vivo Validation” (Frontiers in Immunology, 2021):
In brackets after ≈: the same amount, converted by molar mass. Where two headings read alike, the source gives them in different places. Ends that are not written are not given here.

What was measured:
[1] = tested on: Mtb H37Rv-infected MonoMac-6 human monocytes; experiment: Intracellular killing of Mycobacterium tuberculosis; type: cell-based
[2] = tested on: Mycobacterium tuberculosis H37Rv; experiment: Slow progressing murine TB model (i.p. infection), CFU in organs; type: in vivo, BALB/c female mice; conditions: BALB/c mice, INH 20 mg/kg bw per os, twice a week for 5 weeks, 1 week after 10th treatment
Mtb H37Rv = experiment: In vitro antitubercular effect, broth dilution MIC; type: cell-based; conditions: Mycobacterium tuberculosis, 672 h, extracellular Mtb H37Rv, Sula semisynthetic medium pH 6.5, 37°C, 28 days, repeated at least two times
EBC-1 cells = type: cell-based, human; conditions: 10 µM, 3 hrs, fixed, 30 profiles
Protocol: In addition to the internalization experiments, the surface morphology of INH-peptide-treated and fixed EBC-1 cells was also studied with atomic force microscopy (AFM) ( Supplementary Information 1.3 ). High-resolution imaging of the cell surfaces was performed with a Flex-Axiom AFM system (Nanosurf, Liestal, Switzerland).The representative images and surface roughness of the native and treated cells are shown in Supplementary Figure S2 .
1.3 Membrane integrity evaluation by atomic force microscopy (AFM) […]
High resolution imaging of the surfaces were performed with a Flex-Axiom AFM system (Nanosurf, Liestal, Switzerland) operating in dynamic mode utilizing soft-tapping cantilevers (Tap150-G, BudgetSensors) with nominal force constant of 5 N/m. The recorded images were evaluated with the Gwyddion software. […]
Two cut-off frequencies were chosen with real-space wavelengths of 1 μm and 200 nm. […] Figure 2D,E,F. Scale dependent surface roughness of the cells was determined according to Antonio et al. Mean Rq values are somewhat higher in the peptide and conjugate treated cells, but […]
Supplementary Figure 2. […] The apex area of the cells was selected for imaging with a scan area of 5 μm × 5 μm (512 × 512 pixel resolution), where the cellular curvature has the smallest distortion effect on the recorded height profiles. […]
1.4. […] To quantify […]

[3] = tested on: CALU-1 monolayer / EBC-1 cells; type: in vitro ADME, human; conditions: Transwell, 0.4 µm polycarbonate, Cf-peptide apical 10 and 20 µM, 45 min, apical to basolateral; EBC-1 fluorescence read-out
Protocol: EBC-1 lung squamous carcinoma and CALU-1 human lung epidermoid carcinoma were seeded on 24-well plates with Transwell inserts (TW) [Nunc, Sigma polycarbonate microporous membrane, 0.4 µm pore size (growth area 0.412 cm^2)]. Before use, TW inserts were incubated with ICM. On day 1, 300 μl of CALU-1 suspension in complete DMEM medium (8.0 × 10^5 cells) was pipetted onto the surface of the TW apical chamber and 500 μl complete DMEM medium was added to the basolateral side. In order to avoid nonattached cells, after incubation at 37°C for 5–6 h, the apical medium was removed and replaced with fresh complete DMEM medium. […] On day 5, the medium was changed, then Cf-peptide was added to the CALU-1-containing apical side at 10 and 20 µM concentrations, and the system was incubated for 45 min or 3 h (37°C, 5% CO2). The TW chamber was removed after incubation. EBC-1 cells were studied using flow cytometry (BD LSR II).
EBC-1 cells were treated without the presence of the TW inserts as controls (on day 4 prior to treatment, EBC-1 cells (10^5 cells/well in complete DMEM). […]
Figure 7 The penetration ability of Cf-peptides was determined on Transwell bronchial interface, and the penetration rates were quantified by flow cytometry. […] The confluence of CALU-1 monolayer was monitored with CellTracker Green, and after development of stable green fluorescence, cells were imaged in situ. […]

[4] = Analytical RP-HPLC retention time (correlates with overall hydrophobicity); type: physicochemical; parameters: Rt (retention time): unit not given here; conditions: chromatographic measure of hydrophobicity; Waters Acquity UPLC BEH C18 (1.7 µm, 150 × 2.1 mm), flow rate 0.3 ml/min, gradient 2% B 1 min, 2%–100% B 16 min; single peak or first of two 5(6)-Cf isomer peaks
Protocol: Purified peptides were analyzed by LC-MS using a Thermo Scientific Q Exactive Focus Hybrid Quadrupole-Orbitrap Mass Spectrometer. For the separation, a Waters Acquity UPLC BEH C18 (1.7 µm, 150 × 2.1 mm) column was used with a flow rate of 0.3 ml/min.
For INH conjugation, representative cell-penetrating (CPP) and antimicrobial peptides (AMP) were chosen. These cationic, amphiphilic peptides are favored in the transportation of various cargos due to their high internalization rate. The used peptide series contains well-known CPPs such as penetratin, transportan, and Tat, frequently studied AMPs such as magainin and buforin, and designed analogs such as Dhvar4, Crot(1-9,38-42), and CM15. Also, a receptor-binding tuftsin analog (OT20), which was reported as a macrophage-targeting peptide, was also applied. […] Mass spectra and RP-HPLC chromatograms are available at https://figshare.com/s/48a023a25068f7658adf, DOI: 10.6084/m9.figshare.16644901. […] To study the internalization rate and intracellular localization, fluorescently labeled analogs were also synthesized. Note that the retention time of Cf-peptide are somewhat higher than unlabeled analogs, and in some cases, two peaks were detected due to the isomeric distribution of 5(6)-Cf molecule.

EBC-1 spheroids = experiment: Penetration into EBC-1 3D spheroids (confocal line scan); type: cell-based, human; conditions: 10 µM, 3 h, confocal z-stack to 55 µm, line scan n = 16
Protocol: In this study, we have employed a modified method based on ([55]). Briefly, micromolds for casting 3D Petri dishes (MicroTissues, Sigma, 5 × 7 array) were filled with molten agarose (2% (w/v) in PBS). The gelled agarose dishes were equilibrated with serum-free DMEM (2 ml/2 h, 37°C). Cells were seeded after incubation (1.8 × 10^4 cell/µL in DMEM CM). Prior to seeding process, nuclei were stained with Hoechst 33342 solution (0.2 µM) for 30 min ( Figure 2 ). Based on our previous work ([55]), the nuclear stain could not successfully penetrate into deeper layers of the spheroids (mostly localized at the spheroid surface), and towards the center of the spheroids the Hoechst 33342 signal was gradually decreasing. Stained cells were incubated in 2 ml DMEM CM for 48 h while cell-to-cell adhesion drives the aggregation and formation of spheroids. To monitor the condition of the spheroids, bright-field images were captured (Olympus CX41). After 48 h of incubation, spheroids were washed two times with fresh ICM DMEM and were treated with the Cf-Dhvar4 peptide (10 µM/2 ml ICM DMEM for 3 h). […] Line scan analysis was performed by NIH ImageJ software, two spheroids were analyzed (eight scans per spheroid, n = 16 in total). […]
Next, we assessed the penetration ability of Cf-Dhvar4 peptide on spheroids formed from EBC-1 cells. […]

MonoMac-6 cells = type: cell-based, human; conditions: 10 µM Cf-peptide, 2 h, LysoTracker, ImageJ JACoP on merged images
Protocol: Cellular uptake and localization were visualized by confocal laser scanning microscopy. MonoMac-6 cells were seeded 1 day prior to treatment into coverslips (thickness 1, Assistent, Karl Hecht GmbH, Sondheim vor der Rhön, Germany) containing a 24-well plate (Sarstedt, Nümbrecht, Germany) for microscopy studies at a density of 7.5 × 10^4 cells/well, in 1 ml complete DMEM medium. The following day, cells were treated with Cf-peptide at a concentration of 10 µM (diluted in serum-free DMEM medium) for 2 h. Lysosomes were stained by LysoTracker Deep Red (Invitrogen, Waltham, MA, USA) for 30 min, and nuclei were stained by Hoechst 33342 solution (Thermo Scientific, USA). After each step, cells were washed three times with serum-free medium, then cells were fixed by 4% paraformaldehyde for 15 min and mounted to microscopy slides with Mowiol 4-88 (Sigma, Budapest, Hungary). Imaging was performed by a Zeiss LSM-710 system (Carl Zeiss microscopy GmbH, Oberkochen, Germany) with a ×40/1.4 Plan-Apochromat oil immersion objective using lasers with the parameters: Cf peptides λex = 488 nm, λem = 541 nm, nuclei λex = 405 nm, λem = 467 nm (Hoechst 33342), lysosomes λex = 633 nm, λem = 720 nm (LysoTrackerTM Deep Red) or λex = 577 nm, λem = 590 nm (LysoTrackerTM Red DND-99) were used. Zeiss ZEN lite software (Carl Zeiss Microscopy GmbH, Jena, Germany) was used for image processing.
Parallel with flow cytometry measurements, confocal laser scanning microscopy images were also captured in order to assess qualitative information on intracellular localization. LysoTrackerTM Deep Red was used for lysosome and Hoechst 33342 for nuclear staining to distinguish subcellular localization of the Cf-peptide. […] Colocalization of Cf-peptide and LysoTracker may be subjectively identified by the cooccurrence, the simple spatial overlap which combined the contribution of both signals (green and red) when the images of each signal are superimposed (merged, see Supplementary Figure S3 ).
microscopy at the 10 µM Cf-peptide concentration (based on flow cytometry profile), and MonoMac6 cells were incubated for 2 hrs.
the visible differences among localization profiles of the Cf-peptides, we applied greyscale analysis of
the images and the evaluation was carried out on a representative peptide set.
were studied and the treatment, the staining and fixation process were carefully optimized to assess
Laser intensity values were identical in case of all Cf-peptides. ZEN 3.0 blue lite software
was used for image processing and grey scale values were extracted using NIH ImageJ software’s Plot

For `NNC(=O)c1ccncc1` [INH, isoniazid], the “intracellular killing efficacy (CFU)” value ([1]; 5, 10, 50 µM, treated two times for 3 + 3 days, SDS lysis, CFU on Löwenstein-Jensen after 4 weeks) was “not effective”, the “Mtb CFU in spleen” value ([2]; INH-Dhvar4 30 mg/kg bw s.c.) was “moderate decrease” and the “Mtb CFU in lung” value [2] was “Clearance of Mtb from the lung”. It also gave an MIC (Mtb H37Rv) of 0.1 to 0.5 µM (≈ 0.0137 to 0.0686 µg/mL).
With “KRLFKKLLFSLRKY-NH2 [Dhvar4, reference compound]” the “membrane integrity (AFM surface roughness Rq)” value (EBC-1 cells) was “membrane integrity maintained”, the “intracellular killing efficacy (CFU)” value [1] was “not effective” and the “penetration through CALU-1 monolayer and internalization into EBC-1 cells” value [3] was “higher internalization rates”. For the same compound, the “Rt (retention time)” value [4] was 6.9.
With “Cf-RAGLQFPVGRVHRLLRK [Cf-Dhvar4, 5(6)-carboxyfluorescein-labeled Dhvar4]” the “penetration ability on EBC-1 spheroids” value (EBC-1 spheroids) was “fair penetration ability” and the “Pearson's coefficient of colocalization with lysosomal staining” value (MonoMac-6 cells) was 0.249.
